# Measurements from ChEMBL document CHEMBL3860077, “Synthesis and pharmacological evaluation of conformationally constrained glutamic acid higher homologues” (Bioorg Med Chem, 2016).
# How the values were obtained:
# [1] = Displacement of [3H]-AMPA from AMPA receptor in rat cortical membranes by scintillation counting method; format: cell membranes
# [2] = Displacement of [3H]-KAIN from kainic acid receptor in rat cortical membranes by scintillation counting method; format: cell membranes
# [3] = Displacement of [3H]-AMPA from AMPA receptor in Sprague-Dawley rat brain synaptic membranes after 30 mins by scintillation counting method
# [4] = Displacement of [3H]-KAIN from kainic acid receptor in Sprague-Dawley rat brain synaptic membranes after 60 mins by scintillation counting method
# [5] = target: Glutamate NMDA receptor; experiment: Displacement of [3H]-CGP39653 from NMDA receptor in Sprague-Dawley rat brain synaptic membranes after 60 mins by scintillation counting method
compound,measurement,setting,value
N[C@@H](C[C@H]1CC(C(=O)O)=NO1)C(=O)O (racemic),IC50,[1],> 100 µM
same,IC50,[2],> 100 µM
N[C@@H](C[C@H]1CC(CCC(=O)O)=NO1)C(=O)O (racemic),IC50,[3],> 100 µM
same,IC50,[4],> 100 µM
same,Ki,[5],> 100 µM
N[C@@H](C[C@@H]1CC(c2ccccc2C(=O)O)=NO1)C(=O)O (racemic),IC50,[3],> 100 µM
same,IC50,[4],> 100 µM
same,Ki,[5],3.6 µM
N[C@@H](C[C@@H]1CC(CCC(=O)O)=NO1)C(=O)O (racemic),IC50,[3],> 100 µM
same,IC50,[4],> 100 µM
same,Ki,[5],13 µM
same,pKi,[5],4.91
N[C@@H](C[C@@H]1CC(/C=C/C(=O)O)=NO1)C(=O)O (racemic),IC50,[3],> 100 µM
same,IC50,[4],> 100 µM
same,Ki,[5],> 100 µM
N[C@@H](C[C@H]1CC(c2cccc(C(=O)O)c2)=NO1)C(=O)O (racemic),IC50,[3],> 100 µM
same,IC50,[4],> 100 µM
same,Ki,[5],100 µM
N[C@@H](C[C@H]1CC(/C=C/C(=O)O)=NO1)C(=O)O (racemic),IC50,[3],> 100 µM
same,IC50,[4],> 100 µM
same,Ki,[5],68 µM
N[C@@H](C[C@H]1CC(c2ccccc2C(=O)O)=NO1)C(=O)O (racemic),IC50,[3],> 100 µM
same,IC50,[4],> 100 µM
same,Ki,[5],22 µM
same,pKi,[5],4.69
N[C@@H](C[C@@H]1CC(c2cccc(C(=O)O)c2)=NO1)C(=O)O (racemic),IC50,[3],> 100 µM
same,IC50,[4],> 100 µM
same,Ki,[5],22 µM
N[C@@H](C[C@H]1CC(c2ccc(C(=O)O)cc2)=NO1)C(=O)O (racemic),IC50,[3],> 100 µM
same,IC50,[4],> 100 µM
same,Ki,[5],> 100 µM
N[C@@H](C[C@@H]1CC(c2ccc(C(=O)O)cc2)=NO1)C(=O)O (racemic),IC50,[3],> 100 µM
same,IC50,[4],> 100 µM
same,Ki,[5],> 100 µM
N[C@@H](C[C@@H]1CC(C(=O)O)=NO1)C(=O)O (racemic),IC50,[1],> 100 µM
same,IC50,[2],> 100 µM
